# From PubChem BioAssay (NCI)
#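 All cell lines were grown in 96-well plates and treated with compound for 48 hours. At the GI50, growth is halved. TGI is the concentration that stops growth completely.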
# Legend:
# Experiment in all cases: NCI-60 cell line screen, 48 h
# DU-145 prostate = test system: DU-145 prostate
# HCT-116 colon = test system: HCT-116 colon
# HCT-15 colon = test system: HCT-15 colon
# HL-60(TB) leukemia = test system: HL-60(TB) leukemia
# KM12 colon = test system: KM12 colon
# MDA-MB-435 = test system: MDA-MB-435
# PC-3 prostate = test system: PC-3 prostate
# SW-620 colon = test system: SW-620 colon
# RPMI-8226 leukemia = test system: RPMI-8226 leukemia
SMILES,TGI (DU-145 prostate),TGI (HCT-116 colon),TGI (HCT-15 colon),TGI (HL-60(TB) leukemia),TGI (KM12 colon),TGI (MDA-MB-435),TGI (PC-3 prostate),TGI (SW-620 colon),TGI (RPMI-8226 leukemia),GI50 (DU-145 prostate),GI50 (HCT-15 colon),GI50 (HL-60(TB) leukemia),GI50 (KM12 colon),GI50 (MDA-MB-435),GI50 (PC-3 prostate),GI50 (RPMI-8226 leukemia)
O=C(Cn1nc(Br)c(Br)c1Br)c1ccccc1,> 100 µM,38.6 µM,> 100 µM,30.5 µM,> 100 µM,> 100 µM,> 100 µM,> 100 µM,,,,,,,,
CC(=O)OC1CC2CCC1(C)C2(C)C (stereo unspecified),> 100 µM,> 100 µM,> 100 µM,> 100 µM,> 100 µM,> 100 µM,> 100 µM,> 100 µM,> 100 µM,,,,,,,
COC(=O)NCCc1[nH]nc2c1C(=O)C=C(Nc1ccccc1)C2=O,> 100 µM,54.9 µM,> 100 µM,46.3 µM,62.2 µM,31.1 µM,> 100 µM,> 100 µM,> 100 µM,,,,,,,
CCC1CC2CN3CCc4c([nH]c5c(-c6c(OC)ccc7c8c([nH]c67)[C@]6(C(=O)OC)CC7CC(CC)C6N(CC8)C7)c(O)ccc45)[C@](C(=O)OC)(C2)C13 (stereo partly specified),28.4 µM,25.7 µM,31.4 µM,,32.3 µM,23.6 µM,30.2 µM,25.6 µM,,,,,,,,
CC(=O)O[C@H]1C[C@]2(C)C(CCC3O[C@@]32C)[C@@]2(CC(c3ccoc3)OC2O)[C@@H]1C (stereo partly specified),> 100 µM,> 100 µM,> 100 µM,52 µM,> 100 µM,> 100 µM,> 100 µM,> 100 µM,81.1 µM,,,,,,,
Cc1cc(N(CCC#N)CCC#N)ccc1/C(N=Nc1cccc([N+](=O)[O-])c1)=N/NC(=O)c1cc(Cl)ccc1O,> 100 µM,> 100 µM,80.5 µM,37.8 µM,> 100 µM,> 100 µM,> 100 µM,> 100 µM,47.5 µM,,,,,,,
CCCN1C(=O)CCC2=C1CCc1c2ccc(Cl)c1Cl,> 100 µM,> 100 µM,> 100 µM,86.2 µM,> 100 µM,> 100 µM,> 100 µM,> 100 µM,> 100 µM,,,,,,,
C1COC(NC(C2CC2)C2CC2)=N1,> 100 µM,> 100 µM,> 100 µM,> 100 µM,> 100 µM,> 100 µM,> 100 µM,> 100 µM,> 100 µM,,,,,,,
Cc1cccc(Nc2cn(COCc3ccccc3)c(=O)[nH]c2=O)c1,> 100 µM,> 100 µM,> 100 µM,> 100 µM,> 100 µM,> 100 µM,> 100 µM,> 100 µM,> 100 µM,,,,,,,
CC(=O)[O-].CC(=O)[O-].O=C(N/N=C/c1cc(Cl)cc(Cl)c1[OH2+])c1ccncc1.[Co+2],,> 100 µM,> 100 µM,> 100 µM,> 100 µM,,,> 100 µM,> 100 µM,,,,,,,
O=C(O)CSc1cc(-c2ccccc2)nc2ccccc12,> 100 µM,22 µM,> 100 µM,58.2 µM,> 100 µM,38 µM,> 100 µM,> 100 µM,,,,,,,,
CC(=O)O[C@H]1CC[C@]2(C)[C@H]3CC[C@@H]4[C@H]5[C@H](C(C)C)CC[C@]5(C(=O)OCC(CO)(CO)N=C(N)N)CC[C@@]4(C)[C@]3(C)CC[C@H]2C1(C)C,3.2 µM,,3.71 µM,4.26 µM,3.36 µM,3.11 µM,3.09 µM,,4.81 µM,1.7 µM,1.79 µM,1.79 µM,1.75 µM,1.64 µM,1.59 µM,2.07 µM
